Reference: PubChem BioAssay AID1963964 (Molecular Pharmacology Branch, DTP, NCI, 2024)

Test system: 997726-040-R-J2-PDC tumor spheroids, viability
Assay: Anticancer human tumor 997726-040-R-J2-PDC patient-derived squamous cell lung carcinoma cell line growth inhibition [PI3K]
Details: spheroids with HUVEC and MSC; for viability, T/C: stronger effect = lower value
How it was run: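 Complex 3D spheroids (cancer cells + endothelial HUVEC + mesenchymal stem cells); drug pairs of targeted agent x inavolisib/alpelisib/duvelisib/copanlisib; half-log series from ~Cmax, max 10 microM if Cmax unknown; endpoint viability.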
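Also: spheroids exposed to compounds for seven days before readout.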

CC(=O)c1c(C)c2cnc(Nc3ccc(N4CCNCC4)cn3)nc2n(C2CCCC2)c1=O + CC(Nc1ncnc2nc[nH]c12)c1cc2cccc(Cl)c2c(=O)n1-c1ccccc1
IC50 (curve of first compound, second compound 0.0316 µM): > 100 nM | IC50 (curve of first compound, second compound 0.1 µM): > 100 nM | IC50 (curve of first compound, second compound 0.316 µM): > 100 nM | IC50 (curve of first compound, second compound 1 µM): > 100 nM | IC50 (curve of first compound, second compound 3.16 µM): > 100 nM | IC50 (curve of first compound, second compound 10 µM): 10.6 nM | viability, T/C (second compound 0.0316 µM, first compound 0.000316 µM): 94% | viability, T/C (second compound 0.0316 µM, first compound 0.001 µM): 109% | viability, T/C (second compound 0.0316 µM, first compound 0.00316 µM): 93.7% | viability, T/C (second compound 0.0316 µM, first compound 0.01 µM): 87.7% | viability, T/C (second compound 0.0316 µM, first compound 0.0316 µM): 86.1% | viability, T/C (second compound 0.0316 µM, first compound 0.1 µM): 61.2% | viability, T/C (second compound 0.1 µM, first compound 0.000316 µM): 102% | viability, T/C (second compound 0.1 µM, first compound 0.001 µM): 94.8% | viability, T/C (second compound 0.1 µM, first compound 0.00316 µM): 91.3% | viability, T/C (second compound 0.1 µM, first compound 0.01 µM): 96.6% | viability, T/C (second compound 0.1 µM, first compound 0.0316 µM): 78.3% | viability, T/C (second compound 0.1 µM, first compound 0.1 µM): 65.5% | viability, T/C (second compound 0.316 µM, first compound 0.000316 µM): 99.8% | viability, T/C (second compound 0.316 µM, first compound 0.001 µM): 96.7% | viability, T/C (second compound 0.316 µM, first compound 0.00316 µM): 91.3% | viability, T/C (second compound 0.316 µM, first compound 0.01 µM): 83.5% | viability, T/C (second compound 0.316 µM, first compound 0.0316 µM): 81.6% | viability, T/C (second compound 0.316 µM, first compound 0.1 µM): 57.3% | viability, T/C (second compound 1 µM, first compound 0.000316 µM): 97.1% | viability, T/C (second compound 1 µM, first compound 0.001 µM): 85.7% | viability, T/C (second compound 1 µM, first compound 0.00316 µM): 86.9% | viability, T/C (second compound 1 µM, first compound 0.01 µM): 74.1% | viability, T/C (second compound 1 µM, first compound 0.0316 µM): 75.8% | viability, T/C (second compound 1 µM, first compound 0.1 µM): 53.3% | viability, T/C (second compound 3.16 µM, first compound 0.000316 µM): 72.9% | viability, T/C (second compound 3.16 µM, first compound 0.001 µM): 71.7% | viability, T/C (second compound 3.16 µM, first compound 0.00316 µM): 77.3% | viability, T/C (second compound 3.16 µM, first compound 0.01 µM): 70.1% | viability, T/C (second compound 3.16 µM, first compound 0.0316 µM): 58.4% | viability, T/C (second compound 3.16 µM, first compound 0.1 µM): 50.4% | viability, T/C (second compound 10 µM, first compound 0.000316 µM): 53.9% | viability, T/C (second compound 10 µM, first compound 0.001 µM): 51.6% | viability, T/C (second compound 10 µM, first compound 0.00316 µM): 56.9% | viability, T/C (second compound 10 µM, first compound 0.01 µM): 50.4% | viability, T/C (second compound 10 µM, first compound 0.0316 µM): 41.8% | viability, T/C (second compound 10 µM, first compound 0.1 µM): 43.4%

Cn1ncc(Cl)c1-c1cc(C(=O)NC(CN)Cc2cccc(F)c2)sc1Cl (centres undefined)
viability, T/C (compound 0.0316 µM): 84.3% [middle of 4 runs] | viability, T/C (compound 0.1 µM): 46.1% [middle of 4 runs] | viability, T/C (compound 0.316 µM): 27.1% [middle of 4 runs] | viability, T/C (compound 1 µM): 12.9% [middle of 4 runs] | viability, T/C (compound 3.16 µM): 9.41% [middle of 4 runs] | viability, T/C (compound 10 µM): 12.4% [middle of 4 runs] | IC50 (curve of compound): 92.5 nM [middle of 4 runs]
